Where a name gives a salt, the structure may show the parent alone. Read-outs that look alike come from different tables or passages of the source.
Assays:
Format in all cases: cell-based, human
[1] = system: AsPC-1 cells (KRAS G12D mutation); experiment: 3D cell proliferation assay (CellTiter Glo-3D), AsPC-1; conditions: Homo sapiens, ASPC1, 3D cell proliferation (CellTiter Glo-3D), medium with 2% FBS, read-out: AsPC-1 AP IC50
Source text: (§1) MIA PaCa-2 cells were purchased from ATCC, Cat. No. CRL-1420; AsPC-1 cells were purchased from ATCC, Cat. No. CRL-1682; NCI-H441 cells were purchased from ATCC, Cat. No. HTB-174: NCI-H1975 cells were purchased from ATCC. Cat. No. CRL-5908; DMEM medium was purchased from Gibco, Cat. No. 11995-065: RPMI-1040 medium was purchased from Gibco. Cat. No. H 18754093; FBS was purchased from Gibco, Cat. No. 10099-141C. penicillin, streptomycin double-antibiotic solution (PS) was purchased from Gibco, Cat. No. 15140-122; Horse serum was purchased from Gibco. Cat. No. 16050130: trypsin (containing EDTA) was purchased from Gibco, Cat. No. 25200-072; DMSO was purchased from VWRAMRESCO, Cat. No. 0231-500ML; 384-well cell culture plates were purchased from Corning, Cat. No. 3830; white-bottomed, opaque 384-well assay plates were purchased from Corning, Cat. No. 3570. CellTiter Glo-3D) kit was purchased from Promega. Cat. No. G9683; cell counter was purchased from CHEMOMETEC, model: NC-200: microplate reader was purchased from PerkinElmer, model: EnVision.
(§2) MIA PaCa-2, a human pancreatic cancer cell strain endogenously containing a KRAS^G12C mutation, was cultured in a complete medium containing DMEM+10% FBS+2.5% Horse serum+1% PS. AsPC-1, a human pancreatic cancer cell strain endogenously containing a […] mutation, was cultured in a complete medium containing RPMI-1640+10% FBS+1% PS. NCI-H441 cells, a human lung cancer cell strain endogenously containing a […] mutation, were cultured in a complete medium containing RPMI-1640+10% FBS+1% PS. NCI-H1975, a KRAS wild-type human lung cancer cell strain whose cell proliferation depends on KRAS activity, was cultured in a complete medium containing RPMI-1640+10% FBS+1% PS.
(§3) The cells were digested with trypsin (containing EDTA), collected in their respective low-serum complete media containing 2% FBS (for MIA Paca-2 cell culture: DMEM+2% FBS+0.5% Horse serum+1% PS), and counted. After the cell density was adjusted as required, 200 MIA PaCa-2 cells, 800 AsPC-1 cells, 800 NCI-H441 cells, or 400 NCI-H1975 cells per well were seeded into a 384-well cell culture plate, with the volume of the medium in each well being 45 μL. The cell culture plate was incubated in an incubator at 37° C. with 5% CO2, overnight. A series of 3.16-fold gradient dilutions of a 1000× compound stock solution were prepared with DMSO, and then diluted 100-fold with the complete medium containing 2% FBS described above to give 10- compound stock solutions. On the day after cell seeding, 5 μL of the 10- compound stock solution was added to each cell culture well. As a result, the final concentration of the compound in the cell culture well became 1×, and the DMSO content in the well was 0.1%. In addition to the compound-treated wells described above, cell-containing DMSO control wells (with 5 μL of the complete medium containing 1% DMSO added to each well) and cell-free medium control wells (containing 50 μL of the complete medium with 2% FBS) were also set. The culture plate was incubated in an incubator at 37° C. with 5% CO2 for another 5 days, and then 30 μL of CellTiter-Glo working solution was added to each well. The mixture was well mixed, incubated for 30 min, left to stand at room temperature for 30 min, and then transferred to a white-bottomed, opaque 384-well assay plate at 40 μL/well. The chemiluminescence values (RLU) were measured using a microplate reader, and the cell proliferation inhibition rate for each well was calculated: IR (%)=(RLUDMSO—RLUcompound)/(RLUDMSO−RLUblank)×100%, where RLUDMSO is the average RLU signal value from the DMSO control well samples, RLUblank is the average RLU signal value from the medium control well samples, and RLUcompound is the RLU signal value from the compound-treated well samples. […]

NCI-H441 cells = experiment: 3D cell proliferation assay (CellTiter Glo-3D), NCI-H441; conditions: medium with 2% FBS, read-out: H441 AP IC50
Source text: as §1, §2, §3

[2] = system: p-ERK in NCI-H441 cells (KRAS G12V mutation); experiment: Cell p-ERK assay (HTRF) in NCI-H441 cells; conditions: NCI-H441 cells, 3 h compound incubation, HTRF p-ERK T202/Y204, read-out: H441 p-ERK IC50
Procedure, shortened: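 AsPC-1 (10000/well) or NCI-H441 (20000/well) cells were seeded overnight, then treated 3 h at 37° C. with 3.16-fold compound dilutions (0.1% DMSO final). Lysates were probed 4 h for phospho-ERK T202/Y204 by HTRF; inhibition versus DMSO and blank wells gave IC50 from four-parameter fits.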

[3] = system: p-ERK in AsPC-1 cells (KRAS G12D mutation); experiment: Cell p-ERK assay (HTRF) in AsPC-1 cells; conditions: AsPC-1 cells, 3 h compound incubation, HTRF p-ERK T202/Y204, read-out: AsPC-1 p-ERK IC50
Procedure: AsPC-1 cells were purchased from ATCC, Cat. No. CRL-1682: NCI-H441 cells were purchased from ATCC, Cat. No. HTB-174: RPMI-1640 medium was purchased from Gibco, Cat. No. I1875-093: FBS was purchased from Gibco, Cat. No. 10099-141C: penicillin/streptomycin double-antibiotic solution (PS) was purchased from Gibco, Cat. No. 15140-122: trypsin (containing EDTA) was purchased from Gibco, Cat. No. 25200-072; DMSO was purchased from VWRAMRESCO, Cat. No. 0231-500ML; 96-well cell culture plates were purchased from Corning, Cat. No. 3599: white-bottomed, opaque 96-well plates were purchased from Cisbio, Cat. No. 66PL96025; Advance ERK phospho-T202/Y204 kit was purchased from Cisbio, Cat. No. 64AERPEH; cell counter was purchased from CHEMOMETEC, model: NC-200; microplate reader was purchased from PerkinElmer, model: EnVision.
AsPC-1, a human pancreatic cancer cell strain endogenously containing a KRAS^G12D mutation, was cultured in a complete medium containing RPMI-1640+10% FBS+1% PS. NCI-H441, a human non-small cell lung cancer cell strain endogenously containing a KRAS^G12V mutation, was cultured in a complete medium containing RPMI-1640+10% FBS+1% PS.
The cells were digested with trypsin (containing EDTA), collected in their corresponding complete media, and counted. The density of the cell suspensions was adjusted with their corresponding complete media, and 10000 AsPC-1 cells or 20000 NCI-H441 cells per well were seeded into a 96-well cell culture plate, with the volume of the medium in each well being 80 μL.
The cell culture plate was incubated in an incubator at 37° C. with 5% CO2 overnight. A series of 3.16-fold gradient dilutions of a 1000- compound stock solution were prepared with DMSO, and then diluted 200-fold with the complete medium described above to give 5′ compound stock solutions. On the day after cell seeding, 20 μL of the 5× compound stock solution was added to each cell culture well. As a result, the final concentration of the compound in the cell culture well became 1×, and the DMSO content in the well was 0.1%. In addition to the compound-treated wells described above, cell-containing DMSO control wells were also set. A complete medium containing 0.5% DMSO was added at 20 μL/well. After the mixture was well mixed, the culture plate was incubated in the incubator at 37° C. with 5% CO2 for another 3 h. The medium was then removed from the culture wells, and 50 μL of cell lysis buffer (from Advance ERK phospho-T202,Y204 kit) was added to each well. The mixture was well mixed and incubated for 30 min. Then, 16 μL of the mixture was transferred to a white-bottomed, opaque 96-well assay plate, and separately, 16 μL of cell lysis buffer was added to additional wells (serving as blank wells) in the assay plate. After the transfer was completed, 4 μL of p-ERK HTRF antibody mixture (from Advance ERK phospho-T202/Y204 kit) was added to each well of the assay plate, followed by a 4-hour incubation. The HTRF signal values (RLU) were then measured using a microplate reader, and the inhibition rate of the compound against p-ERK levels was calculated as follows: IR (%)=(RLUDMSO−RLUcompound)/(RLUDMSO−RLUblank)×100%, where RLUDMSO is the average HTRF signal value from the DMSO control well samples, RLUblank is the average HTRF signal value from the blank well samples, and RLUcompound is the HTRF signal value from the compound-treated well samples. Using an XLfit software, the IR (%) values were plotted against the logarithm of the compound concentrations, and the dose-response curves were fitted using the four-parameter method to calculate the IC50 values.

[4] = Homo sapiens, NCI-H441, 3D cell proliferation (CellTiter Glo-3D)

Row | Compound | IC50 [1] [nM] | IC50 (NCI-H441 cells; [4]) [nM] | IC50 [2] [nM] | IC50 [3] [nM] | IC50 (NCI-H441 cells; 3D cell proliferation (CellTiter Glo-3D)) [nM] | IC50 ([2]; Homo sapiens, NCI-H441, 3 h) [nM] | IC50 ([3]; Homo sapiens, ASPC1, 3 h) [nM]
1 | CCn1c(-c2cc(C#CCN3CCOC[C@@H](O)C3)cnc2[C@H](C)OC)c2c3cc(ccc31)-c1csc(n1)C[C@H](Nc1nnc3cc(C)ccn13)C(=O)N1CCC[C@H](N1)C(=O)OCC(C)(C)C2 (atropisomer, axis not shown; (Ra)) [Compound Z966, (6^3S,4S,Z)-1^1-ethyl-(Ra)-1^2-(5-(3-((S)-6-hydroxy-1,4-oxazepan-4-yl)prop-1-yn-1-yl)-2-((S)-1-methoxyethyl)pyridin-3-yl)-10,10-dimethyl-4-((7-methyl-[1,2,4]triazolo[4,3-a]pyridin-3-yl)amino)-6^1,6^2,6^3,6^4,6^5,6^6-hexahydro-1^1H-8-oxa-2(4,2)-thiazola-1(5,3)-indola-6(1,3)-pyridazinacycloundecaphane-5,7-dione] | 9.41 | 4.91 | – | – | – | – | –
2 | (2R)—N-(5-((6^3S,4S,Z)-4-((1r, 2R,3S)-2,3-dimethylcyclopropane-1-carboxamido)-1^1-ethyl-10,10-dimethyl-5,7-dioxo-6^1,6^2,6^3,6^4,6^5,6^6-hexahydro-1^1H-8-oxa-2(4,2)-thiazola-1(5,3)-indola-6(1,3)-pyridazinacycloundecaphane-2-yl)-6-((S)-1-methoxyethyl)pyridin-3-yl)-N,1-dimethylazepane-2-carboxamide [Compound Z355] | – | – | 45.7 | 109 | 54.7 | – | –
3 | CCn1c(-c2cc(N3CCN4CC5(CC5)OC[C@@H]4C3)cnc2[C@H](C)OC)c2c3cc(ccc31)-c1csc(n1)C[C@H](NC(=O)[C@H]1[C@H](C)[C@@H]1C)C(=O)N1CCC[C@H](N1)C(=O)OCC1(CCC1)C2 [Compound Z467, (1r,2R,3S)—N-((3′S,4′S,Z)-1′-ethyl-2′-(2-((S)-1-methoxyethyl)-5-((S)-tetrabydro-4H-spiro[cyclopropane-1,3′-pyrazino[2,1-c][1,4]oxazin]-8′(1′H)-yl)pyridin-3-yl)-5′,7′-dioxospiro[cyclobutane-1,10′-8-oxa-2(4,2)-thiazola-1(5,3)-indola-6(1,3)-pyridazinacycloundecaphan]-4′-yl)-2,3-dimethylcyclopropane-1-carboxamide] | – | 58.4 | – | – | – | 28.2 | 69
4 | CCn1c(-c2cc(N3CCN(C)CC3)cnc2[C@H](C)OC)c2c3cc(ccc31)-c1csc(n1)C[C@H](NC1CCN(C)C1=O)C(=O)N1CCC[C@H](N1)C(=O)OCC(C)(C)C2 (atropisomer, axis not shown; (Ra)) [Compound Z70, (6^3S,4S,Z)-1^1-ethyl-(Ra)-1^2-(2-((S)-1-methoxyethyl)-5-(4-methylpiperazin-1-yl)pyridin-3-yl)-10,10-dimethyl-4-((1-methyl-2-oxopyrrolidin-3-yl)amino)-6^1,6^2,6^3,6^4,6^5,6^6-hexahydro-1^1H-8-oxa-2(4,2)-thiazola-1(5,3)-indola-6(1,3)-pyridazinacycloundecaphane-5,7-dione formate] | 416 | 344 | – | – | – | – | –
5 | CCn1c(-c2cc(N3CCN(C)CC3)cnc2[C@H](C)OC)c2c3cc(ccc31)-c1csc(n1)C[C@H](Nc1cccnn1)C(=O)N1CCC[C@H](N1)C(=O)OCC(C)(C)C2 (atropisomer, axis not shown; (Ra)) [Compound Z457, (6^3S,4S,Z)-1^1-ethyl-(Ra)-1^2-(2-((S)-1-methoxyethyl)-5-(4-methylpiperazin-1-yl)pyridin-3-yl)-10,10-dimethyl-4-(pyridazin-3-ylamino)-6^1,6^2,6^3,6^4,6^5,6^6-hexahydro-1^1H-8-oxa-2(4,2)-thiazola-1(5,3)-indola-6(1,3)-pyridazinacycloundecaphane-5,7-dione] | – | 27.6 | – | – | – | 26.1 | 92

Reference: patent publication US20260234165A1, “MACROCYCLIC COMPOUNDS, PREPARATION METHOD THEREFOR, AND USE THEREOF” (GENFLEET THERAPEUTICS (SHANGHAI) INC., priority 2004, published 2026)
